{
  "source": "paper PMC6610884",
  "about": "(Journal of medicinal chemistry, 2018)",
  "key": {"Plasmodium cynomolgi": {"system": "Plasmodium cynomolgi", "conditions": "rhesus monkeys; cited from earlier work"}, "P. berghei liver stages [1]": {"system": "P. berghei liver stages", "format": "in vivo, Plasmodium berghei", "conditions": "liver stage model, mice"}, "P. falciparum TM90-C2B": {"system": "P. falciparum TM90-C2B", "conditions": "RI = EC50(TM90-C2B)/EC50(W2); cited from earlier work"}, "P. berghei liver stages [2]": {"system": "P. berghei liver stages", "conditions": "read-out: liver stage activity; cited from earlier work"}, "P. berghei blood stages": {"system": "P. berghei blood stages", "conditions": "Pb-infected mice, single oral 50 mg/kg dose 1 day PI, compared to untreated animals"}, "[3]": {"conditions": "single dose 50 mg/kg subcutaneous"}},
  "note": "pEC50: −log10 of the molar value. Values joined by “and” are separate entries in the source; they are usually repeats but may differ in a detail not shown here. Equal entries are not always repeated. Where two headings read alike, the source gives them in different places.",
  "data": [
    {"smiles": "CCCCc1cc2c(=O)c(C(=O)OCC)c[nH]c2cc1OCCOc1ccccc1", "note": "[compound 1]", "values": [
      {"measurement": "radical cure (eradication of dormant exoerythrocytic stages)", "setting": "Plasmodium cynomolgi", "value": "radical cures"}
    ]},
    {"smiles": "COC(=O)c1c[nH]c2cc(CN3CCN(c4ccccc4)CC3)ccc2c1=O", "note": "[8j, Methyl 4-Oxo-7-((4-phenylpiperazin-1-yl)methyl)-1,4-dihydroquinoline-3-carboxylate]", "values": [
      {"measurement": "no. of cures", "setting": "P. berghei liver stages [1]; single dose 25 mg/kg oral", "value": "2/5"},
      {"measurement": "no. of cures", "setting": "P. berghei liver stages [1]; single dose 50 mg/kg oral", "value": "2/5"},
      {"measurement": "no. of cures", "setting": "P. berghei liver stages [1]; [3]", "value": "3/5"},
      {"measurement": "no. of cures", "setting": "P. berghei liver stages [1]; single dose 100 mg/kg oral", "value": "5/5"}
    ]},
    {"smiles": "CCCCc1cc2c(=O)c(Br)c(C)[nH]c2cc1OCCOc1ccccc1", "note": "[compound 2, 3-bromo-6-butyl-2-methyl-7-(2-phenoxyethoxy)quinolin-4(1H)-one]", "values": [
      {"measurement": "resistance index (RI)", "setting": "P. falciparum TM90-C2B", "value": 4.7},
      {"measurement": "pEC50", "setting": "P. berghei liver stages [2]", "value": 8.67}
    ]},
    {"smiles": "COC(=O)c1c[nH]c2cc(CN3CCN(c4ccc(C(F)(F)F)cc4)CC3)c(OC)cc2c1=O", "note": "[8ab, Methyl 6-Methoxy-4-oxo-7-((4-(4-(trifluoromethyl)phenyl)-piperazin-1-yl)methyl)-1,4-dihydroquinoline-3-carboxylate]", "values": [
      {"measurement": "% inhibition day 6 PI", "setting": "P. berghei blood stages", "value": "completely inhibited parasite growth"}
    ]},
    {"smiles": "COC(=O)c1c[nH]c2cc(CN3CCN(c4ccc(C(F)(F)F)cc4)CC3)ccc2c1=O", "note": "[8p, Methyl 4-Oxo-7-((4-(4-(trifluoromethyl)phenyl)piperazin-1-yl)-methyl)-1,4-dihydroquinoline-3-carboxylate]", "values": [
      {"measurement": "% inhibition day 6 PI", "setting": "P. berghei blood stages", "value": "completely inhibited parasite growth"}
    ]},
    {"smiles": "COC(=O)c1c[nH]c2cc(CN3CCN(Cc4ccc(OC)cc4)CC3)ccc2c1=O", "note": "[8l, Methyl 7-((4-(4-Methoxybenzyl)piperazin-1-yl)methyl)-4-oxo-1,4-dihydroquinoline-3-carboxylate]", "values": [
      {"measurement": "no. of cures", "setting": "P. berghei liver stages [1]; single dose 25 mg/kg oral", "value": "0/5"},
      {"measurement": "no. of cures", "setting": "P. berghei liver stages [1]; single dose 50 mg/kg oral", "value": "0/5"},
      {"measurement": "no. of cures", "setting": "P. berghei liver stages [1]; [3]", "value": "0/5"},
      {"measurement": "no. of cures", "setting": "P. berghei liver stages [1]; single dose 100 mg/kg oral, 100 mg/kg", "value": "one of five and 1/5"}
    ]},
    {"smiles": "Cc1[nH]c2cc(CN3CCN(c4ccc(F)cc4)CC3)ccc2c(=O)c1Br", "note": "[8an, 3-Bromo-7-((4-(4-Fluorophenyl)piperazin-1-yl)methyl)-2-methylquinolin-4(1H)-one]", "values": [
      {"measurement": "% inhibition day 6 PI", "setting": "P. berghei blood stages", "value": "completely inhibited parasite growth"}
    ]},
    {"smiles": "COC(=O)c1c[nH]c2cc(CN3CCN(c4ccc(C(F)(F)F)cc4)CC3)c(C)cc2c1=O", "note": "[8v, Methyl 6-Methyl-4-oxo-7-((4-(4-(trifluoromethyl)phenyl)-piperazin-1-yl)methyl)-1,4-dihydroquinoline-3-carboxylate]", "values": [
      {"measurement": "% inhibition day 6 PI", "setting": "P. berghei blood stages", "value": "completely inhibited parasite growth"}
    ]}
  ]
}
